# Values of other authors as cited in patent US20090312358A1, “METHOD FOR MANAGEMENT OF DIARRHEA” (TRUSTEES OF BOSTON UNIVERSITY, priority 2006, published 2009).
# Where two headings read alike, the source gives them in different places.
# Assays:
# [1] = repeated dosing in mice
# [2] = for elimination half-life: in vivo; for time to peak plasma levels: after oral administration
# [3] = oral
# [4] = compared to methylnaltrexone
# [5] = for antidiarrheal potency relative to codeine: compared to codeine
compound,measurement,setting,value
CN1CC[C@]23c4c5ccc(O)c4O[C@H]2[C@@H](O)C=C[C@H]3[C@H]1C5 [morphine],development of tolerance to antimotility effects,[1],not observed
COc1ccc2c3c1O[C@H]1[C@@H](O)C=C[C@H]4[C@@H](C2)N(C)CC[C@@]341 [codeine],elimination half-life,[2],~3 h
"C[N@+]1(CC2CC2)CC[C@]23c4c5ccc(O)c4O[C@H]2C(=O)CC[C@@]3(O)[C@H]1C5 [methylnaltrexone, Methylnaltrexone]",elimination half-life,[2],3 h
same,elimination half-life,[2]; listed as Methylnaltrexone,2 to 3 h
same,time to restore normal bowel function,[3]; opioid bowel dysfunction,4 to 7 h
"C=C1CC[C@@]2(O)[C@H]3Cc4ccc(O)c5c4[C@@]2(CCN3CC2CC2)[C@H]1O5 [nalmefene, Nalmefene]",elimination half-life,[2],approximately 11 hours
"C[C@H]1CN(C[C@H](Cc2ccccc2)C(=O)NCC(=O)O)CC[C@@]1(C)c1cccc(O)c1 [alvimopan, Alvimopan]",potency in reversing the effects of morphine in the gastrointestinal tract relative to methylnaltrexone,[4],approximately 200 times
"CN(C)C(=O)C(CCN1CCC(O)(c2ccc(Cl)cc2)CC1)(c1ccccc1)c1ccccc1 [loperamide, Loperamide]",development of tolerance to antimotility effects,[1],two
same,time to peak plasma levels,[2],3 to 5 h
same,elimination half-life,[2],9 to 14 h
same,time to achieve symptomatic control of acute diarrhea,[3]; acute diarrhea,9 to 20 h
N#CC(CCN1CCC(C(=O)O)(c2ccccc2)CC1)(c1ccccc1)c1ccccc1 [difenoxin],apparent half-life of difenoxin produced by de-esterification of diphenoxylate,[2]; healthy volunteers,approximately 50 minutes
same,elimination half-life,[2],7 to 12 h
same,antidiarrheal potency relative to codeine,[5],seventy-seven
same,antidiarrheal potency relative to diphenoxylate,[5]; compared to diphenoxylate,five
"O=C1CC[C@@]2(O)[C@H]3Cc4ccc(O)c5c4[C@@]2(CCN3CC2CC2)[C@H]1O5 [naltrexone, Naltrexone]",time to peak plasma levels,[2],about 1 hours
CCOC(=O)C1(c2ccccc2)CCN(CCC(C#N)(c2ccccc2)c2ccccc2)CC1 [diphenoxylate],time to peak plasma levels,[2],approximately 2 hours
same,antidiarrheal potency relative to codeine,[5],fifteen
